This experiment has as its system female BALB/c mice. The experiment is described as follows: Immunization of mice in presence of Freund's adjuvant, antibody responses in sera analyzed by glycan microarray. In kind it is in vivo. The protocol:
To evaluate the immunogenicity of the meningococcal tetrasaccharide 1, two groups of six female BALB/c mice, six to eight weeks old, were immunized subcutaneously (s.c.) in presence of Freund's adjuvant (FA). Each mouse of the first group was immunized s.c. with 0.4 μg unconjugated tetrasaccharide 1 antigen in presence of Freund's adjuvant (priming with Freund's Complete Adjuvant, boosting with Freund's Incomplete Adjuvant, both Sigma). Each mouse of the second group received tetrasaccharide 1-CRM197 conjugate, whereby the amount of conjugate corresponded to 0.4 μg tetrasaccharide 1 antigen. Two weeks after initial immunizations, first boosting injection was performed with 4 μg tetrasaccharide 1 or the corresponding tetrasaccharide 1-CRM197 conjugate.
For all immunizations, antigen was diluted in sterile PBS to a total injection volume of 100 μL per mouse. Blood was collected at the tail vein and erythrocytes were separated from serum by centrifugation. All blood samples from the initial immunization study with FA were diluted with 10 μl sterile PBS before sera separation. Sera were collected in definited time intervals and IgG antibody responses were analyzed by microarray.
Tetrasaccharide 1 in three different concentrations (1, 0.5 and 0.1 mM), CRM197 (1, 0.5 and 0.1 μM) and bovine serum albumin (BSA)-spacer-GlcNAc conjugate (1, 0.5 and 0.1 μM) were dissolved in sodium phosphate buffer (50 mM, pH 8.5) and printed in triplicate robotically using a piezoelectric spotting device (S11, Scienion, Berlin, Germany) onto the surface of the microarray slides (NHS-activated glass slides; CodeLink). BSA-spacer-GlcNAc was used to assess immunogenicity against the spacer moiety of the conjugate. […]
The quenched array slides were blocked for 1 hour with 1% (w/v) BSA in PBS, then washed three times with PBS and dried by centrifugation. […] Then, slides were incubated with fluorescence-labeled detection antibody diluted in 1% BSA-PBS (w/v) for 1 hour at room temperature in a humid chamber. […]

For the molecule `CC(=O)NC1C(O)[C@H](O)C(CO)O[C@@H]1OC1C(O)[C@H](O)C([C@@H](O)CO)O[C@@H]1OC1C(O)[C@@H](O[C@@H]2C(O)C[C@](OCCCCCN)(C(=O)O)OC2[C@H](O)CO)OC([C@@H](O)CO)[C@H]1O` (stereo partly drawn) [tetrasaccharide 1, 2-N-acetyl-2-deoxy-α-D-glucopyranosyl-(1→2)-L-glycero-α-D-manno-heptopyranosyl-(1→3)-L-glycero-α-D-manno-heptopyranosyl-(1→5)-2-(5-amino)pentyl-3-deoxy-α-D-manno-oct-2-ulopyranosidonic acid], the “IgG antibody response, anti-tetrasaccharide 1 titers (fluorescence intensity)” value (1:80 sera dilution, after first boosting, Freund's adjuvant) is “relatively weak”. In addition, under “after first boosting with 4 μg (4. week), Freund's adjuvant”, the “Tetrasaccharide 1-specific IgG and IgM antibody responses in pooled sera” value was “identified”. In addition, under “second boost 4 μg antigen in week 8, read in week 9”, the “IgG response one week after second boosting” value is listed as “marginal increase”.

Source of the values: patent US20140234364A1, “TOTAL SYNTHESIS AND IMM[…] […] OF THE LIPOPOLY[…] NEISSERIA MENINGITIDIS” (MAX-PLANCK-GESELLSCHAFT ZUR FÖRDERUNG DER WISSENSCHAFTEN …, priority 2011, published 2014).
